Measured values as given in US6579851B2, “Effects of glucagon-like peptide-1 (7-36) on antro-pyloro-duodenal motility” (Amylin Pharmaceuticals, Inc., priority 2000, dated 2003).
Where two headings read alike, the source gives them in different places.

What was measured:
[1] = Plasma pancreatic polypeptide immunoreactivity during intravenous GLP-1 infusion; type: in vivo, human
Description: (§1) All values were expressed as mean±SEM. […] Differences were considered significant at P<0.05.
(§2) All studies were performed after an overnight fast.
(§3) The plasma was stored at −20° C. until assayed.

[2] = for GLP-1 (plasma immunoreactivity, AUC over basal): 60 min period, mean ± SEM
Description: Plasma glucose concentrations were measured using a glucose analyzer by the glucose oxidase method (YSI 1500 G; Schlag, Bergisch-Gladbach, Germany), with a coefficient of variation of <2%. Plasma insulin was measured by the Abbott Imx Microparticle Enzyme Immunoassay, with an average intraassay coefficient of variation of 5%. Plasma immunoreactivities of C-peptide, glucagon, and pancreatic polypeptide (PP) were analyzed by commercially available radioimmunoassay kits (Biermann, Bad Nauheim, Germany and Euradiagnostica, The Netherlands [PP]). […] The detection limit of the assay was 0.25 pmol/l. […] Intra- and inter-assay coefficients of variation were 3.4 and 10.4%, respectively. All values were expressed as mean±SEM. Plasma and motility parameters were separately analyzed for each 60 min period. Pyloric tone was calculated as change from basal, the latter being determined as mean pyloric tone during the total basal period before starting the experiments. Differences of plasma hormones and glucose compared to the basal state were calculated as integrated values over basal (area under the response curve; AUC). Basal levels of plasma parameters were determined as the mean of the two basal values just before the start of each experiment. All samples were first tested for normality by the Kolmogoroff-Smirnoff test. Differences between experimental sets for each parameter were analysed by two-way repeated measures analysis of variance employing intravenous infusion and duodenal perfusion as factors. When this analysis indicated differences, a Student-Newman-Keuls multicomparison test was performed. Differences were considered significant at P<0.05.
(§4) Eleven healthy male volunteers, 23 to 28 years old and within 10% of ideal body weight, participated in the studies. None of them were taking medication, or suffering from gastrointestinal symptoms or systemic disease.
(§5) All studies were performed after an overnight fast. Two experiments were performed, separated by at least 1 week on subjects lying in a semirecumbent position. An indwelling catheter was inserted into an antecubital vein for intravenous infusions. A second catheter was inserted into a dorsal vein of the contralateral hand in a retrograde fashion for sampling of arterialized blood (Schirra et al. Proc Assoc Am Physicians 109, 84-97 (1997)).
(§6) On the interdigestive study day, 0.154 M saline was continuously perfused into the region of the lower duodenal flexure at a rate of 2.5 ml/min. […] On the postprandial study day, the same intravenous infusions were administered with an intraduodenal lipid perfusion at 2.5 kcal/min (2.5 ml/min, Lipofundin MCT 10%, Braun Co., Melsungen, Germany). This lipid preparation consisted of 50% medium-chain triglycerides (MCT) and 50% long-chain triglycerides (LCT, soya bean oil).
Throughout the experiment, blood samples were taken immediately before the start of intravenous infusion, as well as in 10-min intervals thereafter. Blood was collected in ice-chilled EDTA tubes containing 1000 aprotinin (kallikrein inhibitory units/ml blood) and was centrifuged immediately. The plasma was stored at −20° C. until assayed.

[3] = during the experiments of the application
Description: as §4, §5, §6

[4] = Plasma glucose during intravenous GLP-1 infusion (glucose oxidase method); type: in vivo, human; conditions: for Nadir of plasma glucose: at 20 min
Description: as §1, §2, §3

[5] = Plasma insulin during intravenous GLP-1 infusion (immunoassay); type: in vivo, human
Description: as §1, §2, §3

[6] = Plasma glucagon immunoreactivity during intravenous GLP-1 infusion; type: in vivo, human
Description: as §1, §2, §3

[7] = intraduodenal lipid, high dose 1.2 pmol·kg−1·min−1 iv.
[8] = intraduodenal lipid, low dose 0.4 pmol·kg−1·min−1 iv.
[9] = intraduodenal saline, high dose 1.2 pmol·kg−1·min−1 iv.
[10] = intraduodenal saline, low dose 0.4 pmol·kg−1·min−1 iv.

## CC[C@H](C)[C@H](NC(=O)[C@H](Cc1ccccc1)NC(=O)[C@H](CCC(=O)O)NC(=O)[C@H](CCCCN)NC(=O)[C@H](C)NC(=O)[C@H](C)NC(=O)[C@H](CCC(N)=O)NC(=O)CNC(=O)[C@H](CCC(=O)O)NC(=O)[C@H](CC(C)C)NC(=O)[C@H](Cc1ccc(O)cc1)NC(=O)[C@H](CO)NC(=O)[C@H](CO)NC(=O)[C@@H](NC(=O)[C@H](CC(=O)O)NC(=O)[C@H](CO)NC(=O)[C@@H](NC(=O)[C@H](Cc1ccccc1)NC(=O)[C@@H](NC(=O)CNC(=O)[C@H](CCC(=O)O)NC(=O)[C@H](C)NC(=O)[C@@H](N)Cc1c[nH]cn1)[C@@H](C)O)[C@@H](C)O)C(C)C)C(=O)N[C@@H](C)C(=O)N[C@@H](Cc1c[nH]c2ccccc12)C(=O)N[C@@H](CC(C)C)C(=O)N[C@H](C(=O)N[C@@H](CCCCN)C(=O)NCC(=O)N[C@@H](CCCNC(=N)N)C(N)=O)C(C)C [GLP-1, glucagon-like peptide-1(7-36)amide]
[1]; [7]
  Pancreatic polypeptide (AUC over basal): −104.2 ± 71.1 pg/ml · 60 min
[1]; [8]
  Pancreatic polypeptide (AUC over basal): 7.7 ± 55.4*∥ pg/ml · 60 min
[1]; [9]
  Pancreatic polypeptide (AUC over basal): −128.9 ± 33.2 pg/ml · 60 min
[1]; [10]
  Pancreatic polypeptide (AUC over basal): −90.5 ± 32.7 pg/ml · 60 min
[2]; intraduodenal lipid 2.5 kcal/min, GLP-1 iv. high dose 1.2 pmol·kg−1·min−1
  GLP-1 (plasma immunoreactivity, AUC over basal): 75.2 ± 3.9*‡∥ pmol/l · 60 min
[2]; intraduodenal lipid 2.5 kcal/min, GLP-1 iv. low dose 0.4 pmol·kg−1·min−1
  GLP-1 (plasma immunoreactivity, AUC over basal): 33.8 ± 2.9*∥ pmol/l · 60 min
[2]; intraduodenal saline, GLP-1 iv. high dose 1.2 pmol·kg−1·min−1
  GLP-1 (plasma immunoreactivity, AUC over basal): 67.4 ± 4.0 pmol/l · 60 min
[2]; intraduodenal saline, GLP-1 iv. low dose 0.4 pmol·kg−1·min−1
  GLP-1 (plasma immunoreactivity, AUC over basal): 25.2 ± 2.6 pmol/l · 60 min
[2]; iv. infusion, duodenal saline and lipid
  Time to constant plasma levels after start of infusion: ≤ 20 min
[3]
  Hypoglycemia and other side effects: did not cause hypoglycemia
[4]; high dose GLP-1
  Nadir of plasma glucose: 3.64 ± 0.14 mmol/L
[4]; [7]
  Plasma glucose (AUC over basal): −4.5 ± 0.7*∥ mmol/l · 60 min
[4]; [8]
  Plasma glucose (AUC over basal): −4.7 ± 0.5*∥ mmol/l · 60 min
[4]; [9]
  Plasma glucose (AUC over basal): −2.5 ± 0.4 mmol/l · 60 min
[4]; [10]
  Plasma glucose (AUC over basal): −2.3 ± 0.3 mmol/l · 60 min
[4]; low dose GLP-1
  Nadir of plasma glucose: 3.58 ± 0.12 mmol/L
[5]; [7]
  Insulin (AUC over basal): 31.4 ± 8.4∥ mU/l · 60 min
[5]; [8]
  Insulin (AUC over basal): 24.7 ± 4.8∥ mU/l · 60 min
[5]; [9]
  Insulin (AUC over basal): 11.9 ± 5.1 mU/l · 60 min
[5]; [10]
  Insulin (AUC over basal): 11.3 ± 2.4 mU/l · 60 min
[6]; [7]
  Glucagon (AUC over basal): 48.0 ± 33.8*‡∥ pg/ml · 60 min
[6]; [8]
  Glucagon (AUC over basal): 99.7 ± 25.1*∥ pg/ml · 60 min
[6]; [9]
  Glucagon (AUC over basal): −68.6 ± 28.9 pg/ml · 60 min
[6]; [10]
  Glucagon (AUC over basal): −59.0 ± 37.1 pg/ml · 60 min
